# From patent US20260158017A1, “KIF18A INHIBITOR” (WIGEN BIOMEDICINE TECHNOLOGY (SHANGHAI) CO., LTD., priority 2021, published 2026)
# Target: T1, Recombinant human KIF18A (1-467His-tagged) protein (Homo sapiens, UniProt Q8NI77)
# T1 construct: Recombinant human KIF18A (1-467His-tagged) protein; His; made in house
# Experiment: KIF18A enzyme assay (microtubule-stimulated ATPase activity, ADP-Glo)
# Format: biochemical
# Details: 30 nM KIF18A, 75 μM ATP, 30 μg/mL pig microtubules; read-out: Inhibitory activity against KIF18A IC50
# Summary of the method: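 Buffer 15 mM Tris pH 7.5, 10 mM MgCl2, 0.01% Pluronic F-68, 1 μM paclitaxel, 30 μg/mL pig microtubules; reactions at room temperature. IC50 from inhibition relative to DMSO.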
# T1 sequence (Q8NI77 1-467): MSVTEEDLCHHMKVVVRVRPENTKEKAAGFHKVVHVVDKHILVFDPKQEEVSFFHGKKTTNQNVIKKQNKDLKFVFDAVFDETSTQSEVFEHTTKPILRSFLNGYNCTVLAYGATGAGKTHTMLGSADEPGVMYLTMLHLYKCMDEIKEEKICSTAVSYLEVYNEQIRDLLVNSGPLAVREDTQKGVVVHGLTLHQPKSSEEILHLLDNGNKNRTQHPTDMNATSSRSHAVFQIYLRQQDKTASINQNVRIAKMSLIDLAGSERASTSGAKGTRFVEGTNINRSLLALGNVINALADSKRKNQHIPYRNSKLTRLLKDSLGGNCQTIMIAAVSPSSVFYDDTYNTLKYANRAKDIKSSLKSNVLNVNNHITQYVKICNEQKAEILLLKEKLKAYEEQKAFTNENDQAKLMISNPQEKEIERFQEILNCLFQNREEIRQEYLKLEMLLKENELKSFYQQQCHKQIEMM
# T1 sequence (P02550 whole entry partner): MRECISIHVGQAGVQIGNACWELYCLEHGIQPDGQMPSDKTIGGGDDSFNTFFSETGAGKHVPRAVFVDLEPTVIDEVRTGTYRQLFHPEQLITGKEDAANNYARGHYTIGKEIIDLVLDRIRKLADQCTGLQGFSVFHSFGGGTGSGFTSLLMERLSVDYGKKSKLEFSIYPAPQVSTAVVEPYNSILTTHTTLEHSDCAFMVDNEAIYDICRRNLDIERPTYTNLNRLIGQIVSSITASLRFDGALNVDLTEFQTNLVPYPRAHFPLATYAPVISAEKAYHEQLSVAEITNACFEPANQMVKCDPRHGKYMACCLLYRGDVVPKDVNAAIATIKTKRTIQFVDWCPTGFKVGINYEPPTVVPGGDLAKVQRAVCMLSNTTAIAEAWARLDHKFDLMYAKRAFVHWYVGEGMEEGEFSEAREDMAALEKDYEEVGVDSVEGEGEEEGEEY
# T1 sequence (P02554 whole entry partner): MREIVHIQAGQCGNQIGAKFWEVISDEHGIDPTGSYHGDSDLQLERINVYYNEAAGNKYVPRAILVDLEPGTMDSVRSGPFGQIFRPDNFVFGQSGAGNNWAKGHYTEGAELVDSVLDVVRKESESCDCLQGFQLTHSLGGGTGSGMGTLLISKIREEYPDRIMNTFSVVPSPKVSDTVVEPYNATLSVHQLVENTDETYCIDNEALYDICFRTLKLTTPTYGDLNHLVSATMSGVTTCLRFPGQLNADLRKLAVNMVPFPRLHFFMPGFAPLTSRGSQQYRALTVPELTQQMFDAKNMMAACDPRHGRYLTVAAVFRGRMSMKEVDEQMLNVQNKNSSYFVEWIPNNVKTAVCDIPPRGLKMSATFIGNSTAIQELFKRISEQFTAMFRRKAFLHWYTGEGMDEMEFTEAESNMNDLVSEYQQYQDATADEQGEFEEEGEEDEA
row,IC50,Structure (SMILES)
1,≤ 100 nM,O=C(Nc1ccc(OCF)c(N2CCC(F)(F)CC2)c1)c1cnc(S(=O)(=O)NCCO)cc1N1CCC2(CC1)CC2 [Compound 465]
2,≤ 100 nM,C[C@@H](CO)S(=O)(=O)Nc1cc(N2CCC3(CC2)CC3)c(NC(=O)c2ccc([N+](=O)[O-])c(N3CCC(F)(F)CC3)c2)cn1 [Compound 205]
3,≤ 100 nM,C[C@@H](CO)S(=O)(=O)Nc1ccc(C(=O)Nc2ccc([N+](=O)[O-])c(N3CCC(F)(F)CC3)n2)c(N2CCC3(CC2)CC3)c1 [Compound 77]
4,100 to 500 nM,O=C(Nc1cnc(S(=O)(=O)NCCO)cc1N1CCC2(CC1)CC2)c1ccc([N+](=O)[O-])c(N2CC3CC3C2)n1 (centres unmarked) [Compound 250]
5,100 to 500 nM,C[C@H](CO)NS(=O)(=O)c1ccc(NC(=O)c2ccc([N+](=O)[O-])c(N3CCC(F)(F)CC3)n2)c(N2CCC3(CC2)CC3)c1 [Compound 190]
6,≤ 100 nM,COc1ccc(NC(=O)c2ccc(NS(=O)(=O)[C@@H](C)CO)cc2N2CCC3(CC2)CC3)nc1N1CCC(F)(F)CC1 [Compound 269]
7,≤ 100 nM,COc1ccc(NC(=O)c2cnc(S(=O)(=O)NCCO)cc2N2CCC3(CC2)CC3)nc1OC1CCC1 [Compound 311]
8,≤ 100 nM,O=C(Nc1ccc(OCF)c(OCCC(F)(F)F)n1)c1ccc(S(=O)(=O)NCCO)cc1N1CCC2(CC1)CC2 [Compound 437]
9,≤ 100 nM,CSc1ccc(NC(=O)c2cnc(NS(=O)(=O)CCO)cc2N2CCC3(CC2)CC3)cc1N1CCC(F)(F)CC1 [Compound 609]
10,≤ 100 nM,C[C@H](CO)S(=O)(=O)Nc1cc(N2CCC3(CC2)CC3)c(NC(=O)c2ccc([N+](=O)[O-])c(N3CCC(F)(F)CC3)n2)cn1 [Compound 238]
11,100 to 500 nM,O=C(Nc1cnc(S(=O)(=O)NCCO)cc1N1CCC2(CC1)CC2)c1ccc([N+](=O)[O-])c(N2CCOCC2)n1 [Compound 252]
12,≤ 100 nM,CC(C)(CO)Nc1nc(C(=O)Nc2cnc(S(=O)(=O)NCCO)cc2N2CCC3(CC2)CC3)ccc1OCF [Compound 507]
13,≤ 100 nM,C[C@@H](CO)S(=O)(=O)Nc1cc(N2CCC3(CC2)CC3)c(C(=O)Nc2ccc([N+](=O)[O-])c(N3CCC(F)(F)CC3)n2)cn1 [Compound 141]
14,≤ 100 nM,O=C(Nc1ccc(OCF)c(OCCC(F)(F)F)c1)c1cnc(S(=O)(=O)NCCO)cc1N1CCC2(CC1)CC2 [Compound 469]
15,100 to 500 nM,CC(C)(CO)Nc1cc(C(=O)Nc2ccc(S(=O)(=O)NCCO)cc2N2CCC3(CC2)CC3)ccc1OCF [Compound 539]
16,≤ 100 nM,C[C@@H](CO)NS(=O)(=O)c1cc(N2CCC3(CC2)CC3)c(C(=O)Nc2ccc(OCF)c(N3CCC(F)(F)CC3)n2)cn1 [Compound 509]
17,≤ 100 nM,COc1ccc(C(=O)Nc2ccc(NS(=O)(=O)[C@@H](C)CO)cc2N2CCC3(CC2)CC3)nc1N1CCO[C@H](C)C1 [Compound 335]
18,≤ 100 nM,COc1ccc(NC(=O)c2cnc(S(=O)(=O)NCCO)cc2N2CCC3(CC2)CC3)nc1N1CC(F)(F)C1 [Compound 308]
19,≤ 100 nM,C[C@H]1CN(c2cc(NC(=O)c3cnc(NS(=O)(=O)CCO)cc3N3CCC4(CC3)CC4)ccc2OCF)CCO1 [Compound 451]
20,≤ 100 nM,COc1ccc(NC(=O)c2ccc(NS(=O)(=O)CCO)cc2N2CCC3(CC2)CC3)nc1N1CCOCC1 [Compound 268]
21,≤ 100 nM,O=C(Nc1ccc(OCF)c(N2CC3CC3C2)c1)c1cnc(S(=O)(=O)NCCO)cc1N1CCC2(CC1)CC2 (centres unmarked) [Compound 474]

row,IC50,Structure (SMILES)
1,≤ 100 nM,CC1(F)CCN(c2nc(NC(=O)c3ccc(NS(=O)(=O)CCO)cc3N3CCC4(CC3)CC4)ccc2OCF)C1 (centres unmarked) [Compound 424]
2,≤ 100 nM,COc1ccc(C(=O)Nc2ccc(S(=O)(=O)N[C@H](C)CO)cc2N2CCC3(CC2)CC3)nc1N1CCO[C@H](C)C1 [Compound 352]
3,≤ 100 nM,CSc1ccc(NC(=O)c2ccc(NS(=O)(=O)[C@@H](C)CO)cc2N2CCC3(CC2)CC3)nc1N1CCC(F)(F)CC1 [Compound 605]
4,≤ 100 nM,COc1ccc(C(=O)Nc2cnc(S(=O)(=O)NCCO)cc2N2CCC3(CC2)CC3)nc1OC1CCC1 [Compound 375]
5,100 to 500 nM,O=C(Nc1ccc(S(=O)(=O)NCCO)cc1N1CCC2(CC1)CC2)c1ccc(OCF)c(N2CC(F)(F)C2)c1 [Compound 532]
6,100 to 500 nM,C[C@@H]1CN(c2nc(C(=O)Nc3ccc(S(=O)(=O)NCCO)cc3N3CCC4(CC3)CC4)ccc2[N+](=O)[O-])CCO1 [Compound 178]
7,≤ 100 nM,CC(C)(CO)Nc1cc(NC(=O)c2ccc(S(=O)(=O)NCCO)cc2N2CCC3(CC2)CC3)ccc1[N+](=O)[O-] [Compound 27]
8,≤ 100 nM,O=C(Nc1ccc([N+](=O)[O-])c(N2CCC(F)(F)CC2)c1)c1ccc(S(=O)(=O)NCCO)cc1N1CCC2(CC1)CC2 [Compound 17]
9,≤ 100 nM,C[C@@H]1CN(c2nc(NC(=O)c3cnc(S(=O)(=O)NCCO)cc3N3CCC4(CC3)CC4)ccc2[N+](=O)[O-])CCO1 [Compound 146]
10,≤ 100 nM,O=C(Nc1ccc([N+](=O)[O-])c(N2CCC(F)CC2)c1)c1ccc(S(=O)(=O)NCCO)cc1N1CCC2(CC1)CC2 [Compound 25]
11,≤ 100 nM,C[C@H](CO)NS(=O)(=O)c1ccc(C(=O)Nc2ccc([N+](=O)[O-])c(N3CCO[C@H](C)C3)n2)c(N2CCC3(CC2)CC3)c1 [Compound 96]
12,≤ 100 nM,CSc1ccc(NC(=O)c2cnc(NS(=O)(=O)CCO)cc2N2CCC3(CC2)CC3)cc1N1CC(F)(F)C1 [Compound 612]
13,≤ 100 nM,O=C(Nc1ccc([N+](=O)[O-])c(OC2CCC2)n1)c1cnc(S(=O)(=O)NCCO)cc1N1CCC2(CC1)CC2 [Compound 151]
14,≤ 100 nM,O=C(Nc1ccc([N+](=O)[O-])c(OC2CCC2)n1)c1cnc(NS(=O)(=O)CCO)cc1N1CCC2(CC1)CC2 [Compound 135]
15,≤ 100 nM,C[C@@H]1CN(c2nc(NC(=O)c3ccc(S(=O)(=O)NCCO)cc3N3CCC4(CC3)CC4)ccc2[N+](=O)[O-])CCO1 [Compound 82]
16,≤ 100 nM,O=C(Nc1ccc([N+](=O)[O-])c(N2CCOCC2)c1)c1cnc(S(=O)(=O)NCCO)cc1N1CCC2(CC1)CC2 [Compound 124]
17,≤ 100 nM,O=C(Nc1ccc(OCF)c(N2CCC(F)CC2)c1)c1cnc(S(=O)(=O)NCCO)cc1N1CCC2(CC1)CC2 [Compound 473]
18,100 to 500 nM,C[C@@H]1CN(c2nc(C(=O)Nc3ccc(S(=O)(=O)N[C@@H](C)CO)cc3N3CCC4(CC3)CC4)ccc2OCF)CCO1 [Compound 575]
19,≤ 100 nM,O=C(Nc1ccc(OCF)c(OC2CCC2)n1)c1cnc(S(=O)(=O)NCCO)cc1N1CCC2(CC1)CC2 [Compound 503]
20,≤ 100 nM,C[C@@H]1CN(c2cc(C(=O)Nc3ccc(NS(=O)(=O)[C@H](C)CO)cc3N3CCC4(CC3)CC4)ccc2OCF)CCO1 [Compound 528]
21,≤ 100 nM,O=C(Nc1cnc(NS(=O)(=O)CCO)cc1N1CCC2(CC1)CC2)c1ccc([N+](=O)[O-])c(N2CC3CC3C2)c1 (centres unmarked) [Compound 202]

row,IC50,Structure (SMILES)
1,≤ 100 nM,O=C(Nc1ccc(OCF)c(N2CCC3(CC3)C2)c1)c1ccc(S(=O)(=O)NCCO)cc1N1CCC2(CC1)CC2 [Compound 406]
2,100 to 500 nM,O=C(Nc1ccc(S(=O)(=O)NCCO)cc1N1CCC2(CC1)CC2)c1ccc([N+](=O)[O-])c(N2CCOCC2)n1 [Compound 188]
3,≤ 100 nM,O=C(Nc1ccc([N+](=O)[O-])c(N2CC(F)(F)C2)n1)c1ccc(S(=O)(=O)NCCO)cc1N1CCC2(CC1)CC2 [Compound 84]
4,≤ 100 nM,COc1ccc(C(=O)Nc2cnc(NS(=O)(=O)[C@H](C)CO)cc2N2CCC3(CC2)CC3)nc1N1CCC(F)(F)CC1 [Compound 366]
5,≤ 100 nM,C[C@@H]1CN(c2cc(NC(=O)c3ccc(S(=O)(=O)N[C@@H](C)CO)cc3N3CCC4(CC3)CC4)ccc2OCF)CCO1 [Compound 415]
6,≤ 100 nM,CSc1ccc(NC(=O)c2ccc(NS(=O)(=O)[C@@H](C)CO)cc2N2CCC3(CC2)CC3)cc1N1CCO[C@H](C)C1 [Compound 591]
7,≤ 100 nM,CC(C)(CO)Nc1nc(NC(=O)c2cnc(NS(=O)(=O)CCO)cc2N2CCC3(CC2)CC3)ccc1OCF [Compound 491]
8,≤ 100 nM,C[C@H](CO)S(=O)(=O)Nc1cc(N2CCC3(CC2)CC3)c(NC(=O)c2ccc([N+](=O)[O-])c(N3CCC(F)(F)CC3)c2)cn1 [Compound 206]
9,≤ 100 nM,C[C@@H]1CN(c2cc(NC(=O)c3cnc(NS(=O)(=O)[C@H](C)CO)cc3N3CCC4(CC3)CC4)ccc2OCF)CCO1 [Compound 464]
10,≤ 100 nM,O=C(Nc1ccc(OCF)c(N2CCC(F)CC2)n1)c1cnc(S(=O)(=O)NCCO)cc1N1CCC2(CC1)CC2 [Compound 505]
11,≤ 100 nM,COc1ccc(C(=O)Nc2ccc(S(=O)(=O)NCCO)cc2N2CCC3(CC2)CC3)nc1N1CCOCC1 [Compound 348]
12,≤ 100 nM,COc1ccc(NC(=O)c2ccc(S(=O)(=O)NCCO)cc2N2CCC3(CC2)CC3)nc1N1CCOCC1 [Compound 284]
13,≤ 100 nM,O=C(Nc1ccc(OCF)c(N2CCOCC2)c1)c1cnc(S(=O)(=O)NCCO)cc1N1CCC2(CC1)CC2 [Compound 476]
14,≤ 100 nM,O=C(Nc1ccc(NS(=O)(=O)CCO)cc1N1CCC2(CC1)CC2)c1ccc([N+](=O)[O-])c(OCCC(F)(F)F)c1 [Compound 37]
15,≤ 100 nM,C[C@@H]1CN(c2cc(NC(=O)c3ccc(NS(=O)(=O)CCO)cc3N3CCC4(CC3)CC4)ccc2OCF)CCO1 [Compound 386]
16,≤ 100 nM,CSc1ccc(NC(=O)c2cnc(NS(=O)(=O)CCO)cc2N2CCC3(CC2)CC3)cc1N1CCO[C@@H](C)C1 [Compound 611]
17,≤ 100 nM,O=C(Nc1ccc(NS(=O)(=O)CCO)cc1N1CCC2(CC1)CC2)c1ccc(OCF)c(N2CCC(F)CC2)n1 [Compound 553]
18,≤ 100 nM,O=C(Nc1ccc([N+](=O)[O-])c(N2CCC(F)CC2)n1)c1ccc(NS(=O)(=O)CCO)cc1N1CCC2(CC1)CC2 [Compound 73]
19,≤ 100 nM,C[C@@H]1CN(c2cc(C(=O)Nc3cnc(NS(=O)(=O)[C@@H](C)CO)cc3N3CCC4(CC3)CC4)ccc2[N+](=O)[O-])CCO1 [Compound 207]
20,≤ 100 nM,C[C@H](CO)NS(=O)(=O)c1cc(N2CCC3(CC2)CC3)c(C(=O)Nc2ccc(OCF)c(N3CCC(F)(F)CC3)n2)cn1 [Compound 510]
